In general, IC50 refers to the concentration that inhibits the measured activity by half.

The results in this text go back to patent publication US8076338B2, “Kinase modulators and methods of use” (Exelixis, Inc., priority 2004, dated 2011).

One assay has as its target AktK (Homo sapiens, UniProt P31749). Kind of assay: Luciferase-coupled chemiluminescence kinase assay (ATP consumption). The assay is classed as biochemical. Particulars: Table 1; class symbols per key; read-out: AKT-1 IC50. The method in brief: (§1)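 Activity is read as ATP depletion: luciferase-luciferin reagent added after a 3 h ambient-temperature kinase reaction, with total ATP use limited to 25-60%. Before ATP addition, 2.5-5 nM kinase and compound were preincubated 30 min in Tris pH 7.5/MgCl2/TX-100/DTT buffer; […].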

A further assay concerns the target p70S6K (Homo sapiens, UniProt P23443). The description is as above. The assay is classed as biochemical. To be noted: Table 1; class symbols per key. The gist of the method:
as §1

Sequence of AktK (P31749 whole entry): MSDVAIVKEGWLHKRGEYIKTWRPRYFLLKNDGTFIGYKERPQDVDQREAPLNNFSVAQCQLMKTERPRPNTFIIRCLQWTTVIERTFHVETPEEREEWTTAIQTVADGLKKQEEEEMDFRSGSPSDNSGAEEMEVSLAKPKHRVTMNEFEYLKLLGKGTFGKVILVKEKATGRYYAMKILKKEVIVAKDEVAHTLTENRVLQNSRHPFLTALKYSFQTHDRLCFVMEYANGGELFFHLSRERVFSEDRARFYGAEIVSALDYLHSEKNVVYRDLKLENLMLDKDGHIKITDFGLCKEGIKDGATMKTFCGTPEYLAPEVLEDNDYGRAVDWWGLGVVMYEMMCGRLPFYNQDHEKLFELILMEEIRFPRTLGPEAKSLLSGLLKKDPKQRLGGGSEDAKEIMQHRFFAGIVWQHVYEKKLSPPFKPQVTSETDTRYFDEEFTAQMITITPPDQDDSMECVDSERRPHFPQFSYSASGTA
Sequence of p70S6K (P23443 whole entry): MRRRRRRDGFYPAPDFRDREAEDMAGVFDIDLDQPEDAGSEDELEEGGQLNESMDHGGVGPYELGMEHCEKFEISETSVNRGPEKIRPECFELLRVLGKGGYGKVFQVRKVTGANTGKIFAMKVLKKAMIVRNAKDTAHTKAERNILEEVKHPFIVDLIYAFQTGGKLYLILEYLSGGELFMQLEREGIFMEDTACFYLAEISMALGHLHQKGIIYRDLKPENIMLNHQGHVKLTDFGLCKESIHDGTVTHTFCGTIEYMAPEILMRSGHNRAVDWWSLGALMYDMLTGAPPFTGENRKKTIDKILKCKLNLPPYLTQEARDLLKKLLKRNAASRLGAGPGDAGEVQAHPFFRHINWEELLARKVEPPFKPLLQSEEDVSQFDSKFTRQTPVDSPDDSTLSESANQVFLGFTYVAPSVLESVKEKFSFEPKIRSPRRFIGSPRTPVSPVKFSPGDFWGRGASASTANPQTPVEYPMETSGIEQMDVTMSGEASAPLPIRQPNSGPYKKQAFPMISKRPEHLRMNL

For `FC(F)(F)c1ccc(N2CCN(c3ncnc4[nH]nc(Br)c34)CC2)cc1` [Entry 124, 3-bromo-4-{4-[4-(trifluoromethyl)phenyl]piperazin-1-yl}-1H-pyrazolo[3,4-d]pyrimidine], the IC50 at AktK is no less than 10 µM; against p70S6K, 0.1 to 1 µM.

On to `Brc1n[nH]c2ncnc(N3CCN(c4ccc(OCc5ccccc5)cc4)CC3)c12` [Entry 125, 3-bromo-4-(4-{4-[(phenylmethyl)oxy]phenyl}piperazin-1-yl)-1H-pyrazolo[3,4-d]pyrimidine], for which the 50% inhibitory concentration (IC50) was no less than 10 µM at AktK and 0.1 to 1 µM at p70S6K.

Regarding `CCc1n[nH]c2ncnc(N3CCN(c4cc(Cl)cc(OC)c4C)CC3)c12` [Entry 126, 4-{4-[5-chloro-2-methyl-3-(methyloxy)phenyl]piperazin-1-yl}-3-ethyl-1H-pyrazolo[3,4-d]pyrimidine], the IC50 at AktK was no less than 10 µM; on p70S6K, less than 0.1 µM.

Take `N#Cc1cccnc1N1CCN(c2ncnc3[nH]nc(Br)c23)CC1` [Entry 127, 2-[4-(3-bromo-1H-pyrazolo[3,4-d]pyrimidin-4-yl)piperazin-1-yl]pyridine-3-carbonitrile]: the figures for the IC50 at AktK and on p70S6K were no less than 10 µM and 0.1 to 1 µM, respectively.

`Clc1cc(Cl)cc(N2CCN(c3ncnc4[nH]nc(Br)c34)CC2)c1` [Entry 128, 3-bromo-4-[4-(3,5-dichlorophenyl)piperazin-1-yl]-1H-pyrazolo[3,4-d]pyrimidine]: the IC50 was no less than 10 µM at AktK and 0.1 to 1 µM at p70S6K.

Turning to `Fc1cc(NCCN2CCCC2)c(Cl)c(N2CCN(c3ncnc4[nH]nc(Br)c34)CC2)c1` [Entry 129, 3-[4-(3-bromo-1H-pyrazolo[3,4-d]pyrimidin-4-yl)piperazin-1-yl]-2-chloro-5-fluoro-N-(2-pyrrolidin-1-ylethyl)aniline], the half-inhibitory concentration (IC50) is 0.1 to 1 µM at AktK and less than 0.1 µM against p70S6K.

Regarding `CCc1n[nH]c2ncnc(N3CCN(c4cc(F)cc(NCCN5CCCC5)c4Cl)CC3)c12` [Entry 130, 2-chloro-3-[4-(3-ethyl-1H-pyrazolo[3,4-d]pyrimidin-4-yl)piperazin-1-yl]-5-fluoro-N-(2-pyrrolidin-1-ylethyl)aniline], the IC50 at AktK is 1 to 10 µM; against p70S6K, less than 0.1 µM.

With `Fc1ccc(F)c(N2CCN(c3ncnc4[nH]nc(Br)c34)CC2)c1` [Entry 131, 3-bromo-4-[4-(2,5-difluorophenyl)piperazin-1-yl]-1H-pyrazolo[3,4-d]pyrimidine], the results for the half-maximal inhibitory concentration (IC50) on AktK and against p70S6K were no less than 10 µM and less than 0.1 µM, respectively.

For `CCc1n[nH]c2ncnc(N3CCN(c4cc(F)ccc4F)CC3)c12` [Entry 132, 4-[4-(2,5-difluorophenyl)piperazin-1-yl]-3-ethyl-1H-pyrazolo[3,4-d]pyrimidine], the IC50 on AktK was no less than 10 µM; against p70S6K, 0.1 to 1 µM.

Take `COc1nccnc1N1CCN(c2ncnc3[nH]nc(Br)c23)CC1` [Entry 133, 3-bromo-4-{4-[3-(methyloxy)pyrazin-2-yl]pipera-zin-1-yl}-1H-pyrazolo[3,4-d]pyrimidine]: the half-maximal inhibitory concentration (IC50) on AktK is no less than 10 µM; against p70S6K, 0.1 to 1 µM.

Turning to `Clc1cccc(N2CCN(c3ncnc4[nH]nc(Br)c34)CC2)c1` [Entry 134, 3-bromo-4-[4-(3-chlorophenyl)piperazin-1-yl]-1H-pyrazolo[3,4-d]pyrimidine], the half-maximal inhibitory concentration (IC50) is no less than 10 µM on AktK and less than 0.1 µM against p70S6K.

With `FC(F)(F)c1cccnc1N1CCN(c2ncnc3[nH]nc(Br)c23)CC1` [Entry 135, 3-bromo-4-{4-[3-(trifluoromethyl)pyridin-2-yl]piperazin-1-yl}-1H-pyrazolo[3,4-d]pyrimidine], the half-maximal inhibitory concentration (IC50) at AktK was no less than 10 µM; at p70S6K, 0.1 to 1 µM.

Turning to `FC(F)(F)c1cnc(N2CCN(c3ncnc4[nH]nc(Br)c34)CC2)c(Cl)c1` [Entry 136, 3-bromo-4-{4-[3-chloro-5-(trifluoromethyl)pyridin-2-yl]piperazin-1-yl}-1H-pyrazolo[3,4-d]pyrimidine], the half-inhibitory concentration (IC50) at AktK was no less than 10 µM; on p70S6K, 1 to 10 µM.

For the compound `Cc1c(OCCN2CCCC2)cc(Cl)cc1N1CCN(c2ncnc3[nH]nc(C(C)C)c23)CC1` [Entry 137, 4-(4-{5-chloro-2-methyl-3-[(2-pyrrolidin-1-ylethyl)oxy]phenyl}piperazin-1-yl)-3-(1-methylethyl)-1H-pyrazolo[3,4-d]pyrimidine], the IC50 on AktK was 1 to 10 µM; against p70S6K, less than 0.1 µM.

Regarding `Cc1c(NCCN2CCCC2)cc(Cl)cc1N1CCN(c2ncnc3[nH]nc(C(C)C)c23)CC1` [Entry 138, 5-chloro-2-methyl-3-{4-[3-(1-methylethyl)-1H-pyrazolo[3,4-d]pyrimidin-4-yl]piperazin-1-yl}-N-(2-pyrrolidin-1-ylethyl)aniline], the IC50 on AktK is 1 to 10 µM; against p70S6K, less than 0.1 µM.

As for `CCNC(=O)COc1cccc(N2CCN(c3ncnc4[nH]nc(Br)c34)CC2)c1` [Entry 139, 2-({3-[4-(3-bromo-1H-pyrazolo[3,4-d]pyrimidin-4-yl)piperazin-1-yl]phenyl}oxy)-N-ethylacetamide], the IC50 was 1 to 10 µM on AktK and less than 0.1 µM against p70S6K.

In the case of `Cc1cccc(COc2cccc(N3CCN(c4ncnc5[nH]nc(Br)c45)CC3)c2)c1` [Entry 141, 3-bromo-4-[4-(3-{[(3-methylphenyl)methyl]oxy}phenyl)piperazin-1-yl]-1H-pyrazolo[3,4-d]pyrimidine], the results for the 50% inhibitory concentration (IC50) on AktK and at p70S6K were no less than 10 µM and 0.1 to 1 µM, respectively.

In the case of `Brc1n[nH]c2ncnc(N3CCN(c4cccc(OCCN5CCCCC5)c4)CC3)c12` [Entry 142, 3-bromo-4-(4-{3-[(2-piperidin-1-ylethyl)oxy]phenyl}piperazin-1-yl)-1H-pyrazolo[3,4-d]pyrimidine], the half-inhibitory concentration (IC50) on AktK was in the range of 1 to 10 µM; on p70S6K, 0.1 to 1 µM.

Take `Brc1n[nH]c2ncnc(N3CCN(c4nccc(-c5ccco5)n4)CC3)c12` [Entry 143, 3-bromo-4-[4-(4-furan-2-ylpyrimidin-2-yl)piperazin-1-yl]-1H-pyrazolo[3,4-d]pyrimidine]: the concentration for half-maximal inhibition (IC50) at AktK was no less than 10 µM; against p70S6K, 0.1 to 1 µM.

Regarding `O=C1COc2ccc(-c3ccnc(N4CCN(c5ncnc6[nH]nc(Br)c56)CC4)n3)cc2N1` [Entry 144, 6-{2-[4-(3-bromo-1H-pyrazolo[3,4-d]pyrimidin-4-yl)piperazin-1-yl]pyrimidin-4-yl}-2H-1,4-benzoxazin-3(4H)-one], the half-maximal inhibitory concentration (IC50) at AktK and on p70S6K was 1 to 10 µM throughout.

As to `CCc1n[nH]c2ncnc(N3CCN(c4cccc(OC)c4C)CC3)c12` [Entry 145, 3-ethyl-4-{4-[2-methyl-3-(methyloxy)phenyl]piper-azin-1-yl}-1H-pyrazolo[3,4-d]pyrimidine], the results for the IC50 on AktK and at p70S6K were no less than 10 µM and less than 0.1 µM, respectively.

Regarding `CCc1n[nH]c2ncnc(N3CCN(c4cc(Cl)cc(NCCN(C)C(C)C)c4C)CC3)c12` [Entry 146, N′-{5-chloro-3-[4-(3-ethyl-1H-pyrazolo[3,4-d]pyrimidin-4-yl)piperazin-1-yl]-2-methylphenyl}-N-methyl-N-(1-methylethyl)ethane-1,2-diamine], the figures for the half-maximal inhibitory concentration (IC50) at AktK and at p70S6K were 0.1 to 1 µM and less than 0.1 µM, respectively.

As for `CCc1n[nH]c2ncnc(N3CCN(c4cc(Cl)cc(NCCN(C)CC)c4C)CC3)c12` [Entry 147, N′-{5-chloro-3-[4-(3-ethyl-1H-pyrazolo[3,4-d]pyrimidin-4-yl)piperazin-1-yl]-2-methylphenyl}-N-ethyl-N-methylethane-1,2-diamine], the IC50 on AktK was 0.1 to 1 µM; against p70S6K, less than 0.1 µM.

Take `Cc1c(NCCN(C)C)cc(Cl)cc1N1CCN(c2ncnc3[nH]nc(Br)c23)CC1` [Entry 148, N′-{3-[4-(3-bromo-1H-pyrazolo[3,4-d]pyrimidin-4-yl)piperazin-1-yl]-5-chloro-2-methylphenyl}-N,N-dimethylethane-1,2-diamine]: the IC50 on AktK and at p70S6K was less than 0.1 µM each time.

Regarding `CCN(CC)CCCOc1nc(Cl)nc(N2CCN(c3ncnc4[nH]nc(Br)c34)CC2)c1C` [Entry 149, 3-({6-[4-(3-bromo-1H-pyrazolo[3,4-d]pyrimidin-4-yl)piperazin-1-yl]-2-chloro-5-methylpyrimidin-4-yl}oxy)-N,N-diethylpropan-1-amine], the values for the IC50 at AktK and at p70S6K were 1 to 10 µM and 0.1 to 1 µM, respectively.

In the case of `Clc1cccc(N2CCN(c3ncnc4[nH]nc(Br)c34)CC2)c1Cl` [Entry 150, 3-bromo-4-[4-(2,3-dichlorophenyl)piperazin-1-yl]-1H-pyrazolo[3,4-d]pyrimidine], the IC50 was no less than 10 µM on AktK and 0.1 to 1 µM against p70S6K.

With `FC(F)(F)c1ccccc1N1CCN(c2ncnc3[nH]nc(Br)c23)CC1` [Entry 151, 3-bromo-4-{4-[2-(trifluoromethyl)phenyl]piperazin-1-yl}-1H-pyrazolo[3,4-d]pyrimidine], the IC50 at AktK is no less than 10 µM; against p70S6K it was 0.1 to 1 µM.

On to `Brc1n[nH]c2ncnc(N3CCN(c4ccccc4)CC3)c12` [Entry 152, 3-bromo-4-(4-phenylpiperazin-1-yl)-1H-pyrazolo[3,4-d]pyrimidine], for which the concentration for half-maximal inhibition (IC50) on AktK was no less than 10 µM; on p70S6K, less than 0.1 µM.

Regarding `Fc1ccc(N2CCN(c3ncnc4[nH]nc(Br)c34)CC2)cc1` [Entry 153, 3-bromo-4-[4-(4-fluorophenyl)piperazin-1-yl]-1H-pyrazolo[3,4-d]pyrimidine], the IC50 at AktK was no less than 10 µM; against p70S6K it was 0.1 to 1 µM.

On to `Clc1ccc(N2CCN(c3ncnc4[nH]nc(Br)c34)CC2)cc1` [Entry 154, 3-bromo-4-[4-(4-chlorophenyl)piperazin-1-yl]-1H-pyrazolo[3,4-d]pyrimidine], for which the results for the half-inhibitory concentration (IC50) at AktK and against p70S6K were no less than 10 µM and 0.1 to 1 µM, respectively.

With `FC(F)(F)c1cccc(N2CCN(c3ncnc4[nH]nc(Br)c34)CC2)c1` [Entry 155, 3-bromo-4-{4-[3-(trifluoromethyl)phenyl]piperazin-1-yl}-1H-pyrazolo[3,4-d]pyrimidine], the IC50 on AktK was no less than 10 µM; at p70S6K, less than 0.1 µM.

On to `Brc1ccc(N2CCN(c3ncnc4[nH]nc(Br)c34)CC2)cc1` [Entry 157, 3-bromo-4-[4-(4-bromophenyl)piperazin-1-yl]-1H-pyrazolo[3,4-d]pyrimidine], for which the IC50 at AktK is no less than 10 µM; against p70S6K, 0.1 to 1 µM.
